# Reference: patent publication US20030143559A1, “Novel estrogen receptor ligand binding domain variants and novel ligands and pharmaceutical compositions” (priority 2001, published 2003)
# Numbering of substitutions follows the chain as printed. “And” between values parts separate entries of the source, which are not always exact repeats. Equal entries are not always repeated.
# Experiments:
# wild-type ER = target: T1, wild-type ER (Homo sapiens, UniProt P03372); assay: Inhibition of E2 activity on wild-type ER, COS-7 cells with pHEGO and ERE luciferase reporter; assay type: cell-based; settings: IC50 ± STDEV, pHEGO and pERETkLuc, E2 (3 nM) + 0.1 to 1000 nM compound
# T1 construct: expressed in transfected cells; host or cells: COS-7
# T1 sequence (P03372 1-595): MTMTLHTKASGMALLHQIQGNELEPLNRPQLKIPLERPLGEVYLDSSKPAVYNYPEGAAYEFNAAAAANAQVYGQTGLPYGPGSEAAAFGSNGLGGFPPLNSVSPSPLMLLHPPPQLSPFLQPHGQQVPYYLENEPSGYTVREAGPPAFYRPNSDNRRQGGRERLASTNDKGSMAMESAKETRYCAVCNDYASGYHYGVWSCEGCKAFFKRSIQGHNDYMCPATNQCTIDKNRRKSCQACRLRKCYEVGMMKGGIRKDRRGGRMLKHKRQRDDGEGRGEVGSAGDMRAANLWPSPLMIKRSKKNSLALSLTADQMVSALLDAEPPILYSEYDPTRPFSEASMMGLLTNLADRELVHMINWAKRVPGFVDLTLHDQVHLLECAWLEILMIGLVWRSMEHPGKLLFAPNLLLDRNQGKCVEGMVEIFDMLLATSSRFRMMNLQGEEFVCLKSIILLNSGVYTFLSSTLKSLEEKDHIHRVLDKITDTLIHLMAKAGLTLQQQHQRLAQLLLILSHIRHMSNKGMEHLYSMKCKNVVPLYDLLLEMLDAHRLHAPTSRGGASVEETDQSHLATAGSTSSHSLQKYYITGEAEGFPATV
# Description: For transfection, 0.5 microgram of pERE2tkluc reporter plasmid, 20 ng of pHEGO, and 0.5 microgram of pCIneo inert carrier DNA were combined with 60 microliter serum-free DMEM and 5 microliter Qiagen Superfect transfection reagent, vortexed for 10s, and set at room temperature for 10 min. Each sample was diluted with 350 microliters of steroid-free media, mixed, and added to each well. Following 2 hr 30 min incubation at 37° C., cells were washed once with Dulbecco's phosphate buffered saline (DPBS), and refed with steroid-free media. […] Approximately 24 hr after treatment, cells were washed once with DPBS, then 200 microliter of reporter lysis buffer was added per well and frozen at −80° C. Cells were thawed at room temperature on an orbital shaker for 1 hr 30 min. A 10 microliter aliquot of lysate was transferred to 96 well opaque plates, and relative luciferase units (RLU) determined on a luminometer using the appropriate firefly luciferase substrate.
# Note that the nonspecific activity is a noncompetable element in the assay system.
# In order to dissolve them completely, all the solutions were warmed in 55° C. or boiled water bath for 10 to 20 min before use. The DMSO in cell culture medium was maintained to 0.01% for all the drug concentration tested as well as the vehicle control.
# ER-LBD 388V/424Y/428A = target: T2, ER-LBD 388V/424Y/428A (Homo sapiens, UniProt P03372, I424Y/L428A/M388V); assay: ER-LBD 388V/424Y/428A transactivation, cotransfection luciferase reporter assay in HeLa cells; assay type: cell-based
# T2 construct: expressed in transfected cells; host or cells: HeLa
# T2 sequence (P03372 311-547 M388V/I424Y/L428A): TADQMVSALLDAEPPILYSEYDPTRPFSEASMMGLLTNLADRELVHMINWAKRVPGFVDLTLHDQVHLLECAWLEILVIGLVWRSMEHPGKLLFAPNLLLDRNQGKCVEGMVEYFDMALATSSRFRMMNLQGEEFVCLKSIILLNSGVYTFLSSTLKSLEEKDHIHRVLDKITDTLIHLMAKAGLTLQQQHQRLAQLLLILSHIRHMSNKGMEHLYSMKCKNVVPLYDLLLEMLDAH
# Description: (§1) In order to evaluate the ability of the fusion proteins C7LBD A, B, and the related LBD mutants to regulate transgene expression, a standard co-transfection reporter assay was performed. A reporter construct, henceforth known as 6×2C7pGL3Luc, containing six copies of a directly repeated C7 binding site (6×2C7) inserted upstream of an SV40 promoter fragment and reporter gene encoding firefly luciferase (pGL3Pro; Promega) was transfected along with the designated fusion protein and assayed as described below. Note the consensus C7 binding site is 5′-GCG TGG GCG-3′.
# (§2) Cultured cells (HeLa, Cos, Hep3B or other) were seeded at 5×10^4 cells/well in a 24 well plate prior to the day of transfection in DMEM Phenol-free media, supplemented with L-glutamine and 5% (v/v) charcoal-dextran stripped Fetal Bovine serum (sFBS). Cells were transfected using the Qiagen Superfect Transfection method. For each well 1 μg of total DNA, containing 0.5 μg luciferase reporter plasmid (6×2C7pGL3Luc), 0.1 μg of chimeric activator DNA (e.g., C7LBDA, C7LBDB, or mutants thereof ), and 0.4 μg of an inert carrier plasmid DNA (p3Kpn), was mixed with 60 μL of DMEM phenol-free/serum free media, and 5 μL of Superfect reagent. In general, about 10 ng to about 0.5 μg of chimeric activator DNA was used for each well. […]
# [1] = target: T3, 388V-424Y-428A transcription factor system (Homo sapiens, UniProt P03372, I424Y/L428A/M388V); assay: In vivo regulation of endostatin transgene, gutless vectors, serum endostatin ELISA; parameters: species or system C57BL/6 mice; settings: 50 ug/animal IP; for Endostatin Levels: vectors 5×10^10 particles/mouse each, n = 3
# T3 construct: fragment B=ER amino acids 258-554; expressed in transfected cells; host or cells: HeLa cells transduced with Av3 or gutless adenoviral vector
# T3 sequence (P03372 258-554 M388V/I424Y/L428A): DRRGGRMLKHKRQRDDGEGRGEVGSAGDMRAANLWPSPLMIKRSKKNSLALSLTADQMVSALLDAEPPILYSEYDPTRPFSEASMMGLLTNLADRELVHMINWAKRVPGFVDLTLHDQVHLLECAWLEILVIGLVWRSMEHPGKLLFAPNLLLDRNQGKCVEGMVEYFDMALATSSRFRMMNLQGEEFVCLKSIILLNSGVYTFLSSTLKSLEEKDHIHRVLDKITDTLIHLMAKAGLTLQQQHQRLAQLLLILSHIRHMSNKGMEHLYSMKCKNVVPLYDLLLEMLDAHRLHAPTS
# Description: To address this issue of sustained induction, a second in vivo study was performed.
# [2] = target: T4, 388V-424Y-428A transcription factor (Homo sapiens, UniProt P03372, I424Y/L428A/M388V); assay: In vitro inducible luciferase expression with gutless adenoviral transcription factor vector in Hela cells; assay type: cell-based
# T4 construct: fragment B=ER amino acids 258-554; expressed in transfected cells; host or cells: HeLa cells transduced with Av3 or gutless adenoviral vector
# T4 sequence (P03372 258-554 M388V/I424Y/L428A): T3 sequence (P03372 258-554 M388V/I424Y/L428A)
# Av3-388V/424Y/428A = target: T5, Av3-388V/424Y/428A (Homo sapiens, UniProt P03372, I424Y/L428A/M388V); assay: Transactivation on adenoviral (Av3)-delivered ER variant, luciferase in HeLa cells; assay type: cell-based; settings: 100 nM test compound, 24 hrs (FIG. 5)
# T5 construct: fragment B=ER amino acids 258-554; expressed in transfected cells; host or cells: HeLa cells transduced with Av3 or gutless adenoviral vector
# T5 sequence (P03372 258-554 M388V/I424Y/L428A): T3 sequence (P03372 258-554 M388V/I424Y/L428A)
# From the text: Xu et al., Molecular Therapy, 3:262-273, 2000.
# ER-LBD 421V/428A = target: T6, ER-LBD 421V/428A (Homo sapiens, UniProt P03372, L428A/M421V); assay: ER-LBD 421V/428A transactivation, cotransfection luciferase reporter assay in HeLa cells; assay type: cell-based; settings: p6x2C7Luc reporter, 0.003 to 1000 nM, mean of two or more experiments, read-out: EC50 ± STDEV
# T6 construct: expressed in transfected cells; host or cells: HeLa
# T6 sequence (P03372 311-547 M421V/L428A): T2 sequence (P03372 311-547 M388V/I424Y/L428A) with V78M, M111V, Y114I
# Description: as §1, §2
# Av3-421/428 = target: T7, Av3-421/428 (Homo sapiens, UniProt P03372, L428A/M421V); assay: Transactivation on adenoviral (Av3)-delivered ER variant, luciferase in HeLa cells
# T7 sequence (P03372 258-554 M421V/L428A): T3 sequence (P03372 258-554 M388V/I424Y/L428A) with V131M, M164V, Y167I
# From the text: For example, the ER LBD mutants of the present invention were constructed into a replication defective adenoviral vector (Av3) backbone DNA sequence so that this regulatory system could be delivered into cells for clinical application and testing. An Av3 vector containing a series of C7 binding sites linked to an SV40 minimal promoter and luciferase transgene (C7-SV40-luc) was also constructed and delivered simultaneously with each of the Av3 ER LBD mutant vectors. The cells were then exposed to the corresponding ligand to test the capability of the adenoviral-delivered ER mutants to respond to their corresponding ligands and then mediate the transcription of the luciferase transgene in the context of an adenoviral vector. […] Xu et al., Molecular Therapy, 3:262-273, 2000.
SMILES,IC50 (wild-type ER) [nM],"EC50 (ER-LBD 388V/424Y/428A; HeLa cells cotransfected with pC7ERLBD 388V/424Y/428A and p6x2C7Luc, 0.1 to 1000 nM, mean of two or more experiments, read-out: EC50 ± STDEV)",sensitivity of mutant ER LBD 388V/424Y/428A to LBB 938 relative to estrogen (ER-LBD 388V/424Y/428A; ratio of EC50 values),"endostatin expression, result in words [1]",Endostatin Levels ([1]; Day 1) [ng/mL],Endostatin Levels ([1]; Day 3) [ng/mL],Endostatin Levels ([1]; Day 7) [ng/mL],Fold Induction ([2]; 100 nM ligand vs without ligand) [fold],"Luciferase Expression Levels (Relative Light Units) ([2]; (+) induced with 100 nM ligand, mean +/− standard error (n = 4))",luciferase activity over the basal level (Av3-388V/424Y/428A) [fold],EC50 (ER-LBD 421V/428A) [nM],"response relative to basal activity / fold induction (Av3-421/428; 100 nM test compound, 24 hrs (FIG. 5))",fold induction at 0.1 µM (Av3-421/428; read-out: response relative to basal activity / fold induction),melting point [°C]
"CN(C)CCOc1ccc(/C(=C(/CC2CC3CCC2C3)c2ccccc2)c2ccc(O)cc2)cc1 (stereo not drawn) [LBB938, 4-((1Z))-3-bicyclo[hept-2-yl-1-{4-[2-(dimethylamino)ethoxy]phenyl}-2-phenylprop-1-enyl)phenol]",388,28.4 nM and ~28 nM,approximately eight,induce endostatin expression,6074 ± 3536,2332 ± 333,600 ± 72,90,3284939 +/− 116076 Relative Light Units,19,–,–,–,–
"COC(=O)NC/C(=C(\c1ccc(O)cc1)c1ccc(OCCN(C)C)cc1)c1ccccc1 [LBC081, Carbamic acid, [(2E)-3-[4-[2-(dimethylamino)ethoxy]phenyl]-3-(4-hydroxyphenyl)-2-phenyl-2-propenyl]-, methyl ester]",845,–,–,–,–,–,–,–,–,–,11.7,three,3,161 to 162
"COC(=O)NC/C(=C(/c1ccc(O)cc1)c1ccc(OCCN(C)C)cc1)c1ccccc1 [LBB551, Carbamic acid, [(2Z)-3-[4-[2-(dimethylamino)ethoxy]phenyl]-3-(4-hydroxyphenyl)-2-phenyl-2-propenyl]-, methyl ester]",955,–,–,–,–,–,–,–,–,–,4.89,–,–,122 to 123
